From US11053204B2, “Pyrimidinyloxy benzene derivatives as herbicides” (FMC Corporation, priority 2015, dated 2021)

Experiments:
Format in all cases: in vivo
[1] = system: Italian ryegrass (Lolium multiflorum); assay: Test A preemergence, visual injury rating; settings: 0 to 100 scale (0 no effect, 100 complete control)
Summary of the method: (§1)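 Injury scores run from 0, no effect, to 100, complete control, judged by eye against untreated plants roughly 10 days after treatment. Chemicals carried a surfactant in a non-phytotoxic solvent and went onto loam–sand soil preemergence or onto one- to two-leaf seedlings postemergence.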

[2] = system: giant foxtail (Setaria faberii); assay: Test A preemergence, visual injury rating; settings: 0 to 100 scale (0 no effect, 100 complete control)
Summary of the method: as §1

[3] = system: ragweed (common ragweed, Ambrosia elatior); assay: Test A preemergence, visual injury rating; settings: 0 to 100 scale (0 no effect, 100 complete control)
Summary of the method: as §1

[4] = system: barnyardgrass (Echinochloa crus-galli); assay: Test A preemergence, visual injury rating; settings: 0 to 100 scale (0 no effect, 100 complete control)
Summary of the method: as §1

soybean (Glycine max) = assay: Test C preemergence, plant response rating; settings: Preemergence
Summary of the method: (§2)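 Both timings shared one formulation, a non-phytotoxic solvent mixture with surfactant, and a greenhouse period of 13 to 15 d. Preemergence used seeded loam/sand or silt loam soil, postemergence used 2 to 18 cm plants; visual ratings ran from 0 (no effect) to 100 (complete control).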

[5] = system: ryegrass, Italian (Italian ryegrass, Lolium multiflorum); assay: Test C preemergence, plant response rating; settings: Preemergence
Summary of the method: as §2

[6] = system: nutsedge, yellow (yellow nutsedge, Cyperus esculentus); assay: Test C preemergence, plant response rating; settings: Preemergence
Summary of the method: as §2

[7] = system: oilseed rape (Brassica napus); assay: Test C preemergence, plant response rating; settings: Preemergence
Summary of the method: as §2

[8] = system: morningglory (Ipomoea coccinea); assay: Test C preemergence, plant response rating; settings: Preemergence
Summary of the method: as §2

[9] = system: lambsquarters (Chenopodium album); assay: Test C preemergence, plant response rating; settings: Preemergence
Summary of the method: as §2

[10] = system: wheat (winter wheat, Triticum aestivum); assay: Test C preemergence, plant response rating; settings: Preemergence
Summary of the method: as §2

corn (Zea mays) = assay: Test C preemergence, plant response rating; settings: Preemergence
Summary of the method: as §2

[11] = system: foxtail, giant (giant foxtail, Setaria faberii); assay: Test C preemergence, plant response rating; settings: Preemergence
Summary of the method: as §2

[12] = system: crabgrass, large (large crabgrass, Digitaria sanguinalis); assay: Test C preemergence, plant response rating; settings: Preemergence
Summary of the method: as §2

[13] = system: blackgrass (Alopecurus myosuroides); assay: Test C preemergence, plant response rating; settings: Preemergence
Summary of the method: as §2

[14] = system: ragweed (common ragweed, Ambrosia elatior); assay: Test C preemergence, plant response rating; settings: Preemergence
Summary of the method: as §2

[15] = system: velvetleaf (Abutilon theophrasti); assay: Test C preemergence, plant response rating; settings: Preemergence
Summary of the method: as §2

[16] = system: waterhemp (common waterhemp, Amaranthus rudis); assay: Test C preemergence, plant response rating; settings: Preemergence
Summary of the method: as §2

SMILES: N#Cc1cccc(Oc2ncc(Cl)cn2)c1CCCC(F)(F)F [Compound 72]
- Ryegrass, Italian plant response rating ([1]; 125 g ai/ha): 10
- Ryegrass, Italian plant response rating ([1]; 500 g ai/ha): 30
- Foxtail, Giant plant response rating ([2]; 125 g ai/ha): 90
- Foxtail, Giant plant response rating ([2]; 500 g ai/ha): 100
- Ragweed plant response rating ([3]; 125 g ai/ha): 0
- Ragweed plant response rating ([3]; 500 g ai/ha): 10
- Barnyardgrass plant response rating ([4]; 125 g ai/ha): 90
- Barnyardgrass plant response rating ([4]; 500 g ai/ha): 100
- Plant response rating, Soybean (soybean (Glycine max); 125 g ai/ha, scale of 0 to 100): 90
- Plant response rating, Soybean (soybean (Glycine max); 16 g ai/ha, scale 0 to 100): 0
- Plant response rating, Soybean (soybean (Glycine max); 31 g ai/ha, scale 0 to 100): 0
- Plant response rating, Soybean (soybean (Glycine max); 62 g ai/ha, scale 0 to 100): 15
- Plant response rating, Ryegrass, Italian ([5]; 125 g ai/ha, scale of 0 to 100): 100
- Plant response rating, Ryegrass, Italian ([5]; 16 g ai/ha, scale 0 to 100): 10
- Plant response rating, Ryegrass, Italian ([5]; 31 g ai/ha, scale 0 to 100): 45
- Plant response rating, Ryegrass, Italian ([5]; 62 g ai/ha, scale 0 to 100): 45
- Plant response rating, Nutsedge, Yellow ([6]; 125 g ai/ha, scale of 0 to 100): 0
- Plant response rating, Nutsedge, Yellow ([6]; 16 g ai/ha, scale 0 to 100): 0
- Plant response rating, Nutsedge, Yellow ([6]; 31 g ai/ha, scale 0 to 100): 0
- Plant response rating, Nutsedge, Yellow ([6]; 62 g ai/ha, scale 0 to 100): 0
- Plant response rating, Oilseed Rape ([7]; 125 g ai/ha, scale of 0 to 100): 100
- Plant response rating, Oilseed Rape ([7]; 16 g ai/ha, scale 0 to 100): 5
- Plant response rating, Oilseed Rape ([7]; 31 g ai/ha, scale 0 to 100): 80
- Plant response rating, Oilseed Rape ([7]; 62 g ai/ha, scale 0 to 100): 80
- Plant response rating, Morningglory ([8]; 125 g ai/ha, scale of 0 to 100): 95
- Plant response rating, Morningglory ([8]; 16 g ai/ha, scale 0 to 100): 10
- Plant response rating, Morningglory ([8]; 31 g ai/ha, scale 0 to 100): 40
- Plant response rating, Morningglory ([8]; 62 g ai/ha, scale 0 to 100): 55
- Plant response rating, Lambsquarters ([9]; 125 g ai/ha, scale of 0 to 100): 100
- Plant response rating, Lambsquarters ([9]; 16 g ai/ha, scale 0 to 100): 65
- Plant response rating, Lambsquarters ([9]; 31 g ai/ha, scale 0 to 100): 80
- Plant response rating, Lambsquarters ([9]; 62 g ai/ha, scale 0 to 100): 90
- Plant response rating, Wheat ([10]; 125 g ai/ha, scale of 0 to 100): 80
- Plant response rating, Wheat ([10]; 16 g ai/ha, scale 0 to 100): 0
- Plant response rating, Wheat ([10]; 31 g ai/ha, scale 0 to 100): 0
- Plant response rating, Wheat ([10]; 62 g ai/ha, scale 0 to 100): 30
- Plant response rating, Corn (corn (Zea mays); 62 g ai/ha, scale of 0 to 100): 20
- Plant response rating, Corn (corn (Zea mays); 125 g ai/ha, scale of 0 to 100): 60
- Plant response rating, Corn (corn (Zea mays); 16 g ai/ha, scale 0 to 100): 5
- Plant response rating, Corn (corn (Zea mays); 31 g ai/ha, scale 0 to 100): 20
- Plant response rating, Foxtail, Giant ([11]; 62 g ai/ha, scale of 0 to 100): 75
- Plant response rating, Foxtail, Giant ([11]; 125 g ai/ha, scale of 0 to 100): 100
- Plant response rating, Foxtail, Giant ([11]; 16 g ai/ha, scale 0 to 100): 55
- Plant response rating, Foxtail, Giant ([11]; 31 g ai/ha, scale 0 to 100): 80
- Plant response rating, Crabgrass, Large ([12]; 62 g ai/ha, scale of 0 to 100): 100
- Plant response rating, Crabgrass, Large ([12]; 125 g ai/ha, scale of 0 to 100): 100
- Plant response rating, Crabgrass, Large ([12]; 16 g ai/ha, scale 0 to 100): 100
- Plant response rating, Crabgrass, Large ([12]; 31 g ai/ha, scale 0 to 100): 100
- Plant response rating, Blackgrass ([13]; 62 g ai/ha, scale of 0 to 100): 98
- Plant response rating, Blackgrass ([13]; 125 g ai/ha, scale of 0 to 100): 100
- Plant response rating, Blackgrass ([13]; 16 g ai/ha, scale 0 to 100): 60
- Plant response rating, Blackgrass ([13]; 31 g ai/ha, scale 0 to 100): 98
- Plant response rating, Ragweed ([14]; 125 g ai/ha, scale of 0 to 100): 45
- Plant response rating, Ragweed ([14]; 16 g ai/ha, scale 0 to 100): 0
- Plant response rating, Ragweed ([14]; 31 g ai/ha, scale 0 to 100): 0
- Plant response rating, Ragweed ([14]; 62 g ai/ha, scale 0 to 100): 40
- Plant response rating, Velvetleaf ([15]; 125 g ai/ha, scale of 0 to 100): 100
- Plant response rating, Velvetleaf ([15]; 16 g ai/ha, scale 0 to 100): 10
- Plant response rating, Velvetleaf ([15]; 31 g ai/ha, scale 0 to 100): 60
- Plant response rating, Velvetleaf ([15]; 62 g ai/ha, scale 0 to 100): 55
- Plant response rating, Waterhemp ([16]; 125 g ai/ha, scale of 0 to 100): 100
- Plant response rating, Waterhemp ([16]; 16 g ai/ha, scale 0 to 100): 100
- Plant response rating, Waterhemp ([16]; 31 g ai/ha, scale 0 to 100): 100
- Plant response rating, Waterhemp ([16]; 62 g ai/ha, scale 0 to 100): 100
